Data: patent US20240279615A1, “COMPOSITIONS COMPRISING DIPEPTIDES AND TRACE ELEMENTS” (Evonik Operations GmbH, priority 2021, published 2024)
Entries after “also recorded” stand apart in the source; their conditions may differ. Where a SMILES comes first, the peptide text is derived from it. Bridges are numbered along the chain shown (N, C = ends). Roman numbers before positions name the chains, in order.

Tests used:
[1] = tested on: Human mesenchymal stem cells (MSCs); assay: In vitro cytotoxicity assay (CellTiter-Glo ATP viability) on MSCs; format: cell-based; conditions: for positive effect on viability of dipeptide combined with Cu(II): 24 h, selected combinations of dipeptide and Cu(II)
Experimental: (§1) Human mesenchymal stem cells (MSCs) were cultivated in MesenCult™-ACF Plus Culture Kit (Stemcell Technologies). The medium was prepared according to the manufacturer's instructions with addition of […] gentamicin and 2 mM I-glutamine. Agarabi CHO cells were cultivated in ActiPro medium supplemented with 6 mM I-glutamine. “Complete growth medium” references the medium with added supplements used for the cultivation of the corresponding cell type.
(§2) Stock solutions of Cu(II), I-cysteine, N, N′-di-I-alanyl-I-cysteine ((Ala-Cys)2) and N, N′-di-I-lysyl-I-cysteine ((Lys-Cys)2) were brought into solution in the corresponding complete growth medium immediately prior to their use. For the assay performed with combinations of Cu(II) and I-cysteine, (Ala-Cys)2 or (Lys-Cys)2 on MSCs, the dissolved single compounds were mixed together at 2× treatment concentration. On MSCs, I-cysteine and the dipeptides were tested at 0.5 mM, 1 mM and 5 mM; Cu(II) was tested at 0.2 μM, 1 μM and 5 μM. For the treatment of Agarabi CHO cells, serial dilutions of I-cysteine, (Ala-Cys)2 and (Lys-Cys)2 stock solutions in complete growth medium were performed with 2× treatment concentration at each dilution step. On Agarabi CHO cells, I-cysteine and the dipeptides were tested at 2.5 mM, 5 mM and 10 mM; Cu(II) was tested at 2.5 μM, 10 μM and 40 μM.
(§3) The cytotoxicity of the test compounds and their combinations was assayed on MSCs and Agarabi CHO cells cultivated in white 96-well cell culture plates at 5.000 cells/well. MSCs (50 μL/well) were cultivated for 24 h in a CO2-incubator (37° C., 5% CO2, 95% humidity) to ensure cell adhesion. This was followed by the addition of the prepared 2× concentrated test compounds and mixtures (50 μL/well). […]
(§4) After incubation, the viability of the treated cells was determined based on adenosine triphosphate (ATP) quantification using the CellTiter-Glo® Luminescent Cell Viability Assay (Promega) according to the manufacturer's instructions.
(§5) To calculate the cell viability, resulting luminescence values were averaged and normalized to the signal emitted by the untreated cells.

Agarabi CHO cells = assay: In vitro cytotoxicity assay (CellTiter-Glo ATP viability) on Agarabi CHO cells; format: cell-based; conditions: for positive effect on viability of dipeptide combined with Cu(II): Agarabi CHO cells, 96 h, selected combinations of dipeptide and Cu(II)
Experimental: as §1, §2, §3, §4, §5

Structure (SMILES)	positive effect on viability of dipeptide combined with Cu(II) [1]	positive effect on viability of dipeptide combined with Cu(II) (Agarabi CHO cells)	effect of single component on cell viability ([1]; single component controls, L-cysteine and dipeptides up to 5 mM, Cu(II) up to 5 μM)	effect of single component on cell viability (Agarabi CHO cells; CHO cells, single component control, Cu(II) up to 40 μM)
C[C@H](N)C(=O)N[C@@H](CSSC[C@H](NC(=O)[C@H](C)N)C(=O)O)C(=O)O [(Ala-Cys)2, N,N′-di-L-alanyl-L-cystine] (I: H-Ala-Cys-OH / II: H-Ala-Cys-OH; disulfide I:2-II:2)	pronounced positive effect on viability; also recorded: viability was even increased	pronounced positive effect on viability; also recorded: viability was even increased	–	–
NCCCC[C@H](N)C(=O)N[C@@H](CSSC[C@H](NC(=O)[C@@H](N)CCCCN)C(=O)O)C(=O)O [(Lys-Cys)2, N,N′-di-L-lysyl-L-cystine] (I: H-Lys-Cys-OH / II: H-Lys-Cys-OH; disulfide I:2-II:2)	pronounced positive effect on viability; also recorded: viability was even increased	pronounced positive effect on viability; also recorded: viability was even increased	–	–
O.O.O.O.O.O=S(=O)([O-])[O-].[Cu+2] [Cu(II), Copper (II) sulfate pentahydrate, reference compound]	–	–	did not have a negative effect on viability	did not have a negative effect on viability
